The values below come from patent publication US8378117B2 (priority 2005, dated 2013).

Each structure is given as a SMILES string. Like-named read-outs stand apart in the source and are kept apart here.

Assay [1] concerns the target T1, CB1 receptor (Homo sapiens, UniProt P21554).
T1 construct: expressed in transfected cells
The experiment in a line: Binding assay for CB1 agonists or inverse agonists (SK-N-MC membranes, [3H]-CP-55,940). The settings on record: for inhibition at 1 µM: read-out: CB1 receptor binding percent inhibition, test concentration 1 μM (footnote 1); for inhibition at 0.5 µM: read-out: CB1 receptor binding percent inhibition, test concentration 0.5 μM (footnote 10); for IC50: Cannabinoid CB1 Receptor Binding IC50, calculated by linear regression from percent inhibition at various test concentrations; for inhibition at 0.2 µM: read-out: CB1 receptor binding percent inhibition, test concentration 0.2 μM (footnote 2). A digest of the protocol:
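Membranes from SK-N-MC cells stably expressing human CB1 incubated with compound and [3H]-CP-55,940 ([…]) for 90 min at 30° C in Tris-HCl pH 7.5, MgCl2, EDTA, fatty-acid-free BSA. Non-specific binding defined with 10 uM WIN 55,212; filtration, scintillation count; IC50 by linear regression.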

The next assay concerns the target T2, CB2 receptor (Homo sapiens, UniProt P34972).
T2 construct: expressed in transfected cells
The assay can be described thus: Binding assay for CB2 agonists or inverse agonists (SK-N-MC membranes, [3H]-CP-55,940). Conditions: for CB2 receptor binding percent inhibition: test concentration not stated. In outline:
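Membranes from SK-N-MC cells stably expressing human CB2 were incubated with radioligand and test compounds for 90 min at 30 °C in Tris-HCl buffer, pH 7.5, with MgCl2, EDTA and fatty-acid-free BSA. Filter-bound radioactivity was counted; IC50 was derived by linear regression of percent inhibition.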

Assay [2] addresses T1, CB1 receptor. The experiment in a line: cell-based. Conditions: SK-N-MC cells. The source says:
The CB1 and CB2 receptors are G-protein coupled receptors (GPCR), which influence cell function via the Gi-protein. These receptors modulate the activity of intracellular adenylate cyclase, which in turn produces the intracellular signal messenger cyclic-AMP (cAMP).
At baseline, or during non-ligand bound conditions, these receptors are constitutively active and tonically suppress adenylate cyclase activity. The binding of an agonist causes further receptor activation and produces additional suppression of adenylate cyclase activity. The binding of an inverse agonist inhibits the constitutive activity of the receptors and results in an increase in adenylate cyclase activity.
By monitoring intracellular adenylate cyclase activity, the ability of compounds to act as agonists or inverse agonists can be determined.
Test compounds were evaluated in SK-N-MC cells which, using standard transfection procedures, were stably transfected with human cDNA for pcDNA3-CRE β-gal and pcDNA3 CB1 receptor (human) or pcDNA3 CB2 receptor (human). By expressing CRE β-gal, the cells produced β-galactosidase in response to CRE promoter activation by cAMP. Cells expressing CRE β-gal and either the human CB1 or CB2 receptor will produce less β-galactosidase when treated with a CB1/CB2 agonist and will produce more β-galactosidase when treated with a CB1/CB2 inverse agonist.
The cells were grown in 96-well plates under standard cell culture conditions at 37° C. in a 5% CO2 atmosphere and culture media (wherein the media was supplemented with 2 mM L-glutamine, […] sodium pyruvate, 10% FBS (fetal bovine serum) and antibiotics).
The change in forskolin induced β-galactosidase activity was determined by setting a vehicle treated cell's activity value at 100% and expressing the β-galactosidase activity measured in a corresponding compound treated cell as a percent of the vehicle treated cell activity.
The EC50 value for functional activity for compounds tested was calculated by linear regression and was obtained from studies in which varying compound concentrations were used.
Where an EC50 value was not obtained for a test compound, the value shown (in %) represents change in functional activity and was obtained from a study in which one compound concentration was used.

[3] abbreviates: CB1 Receptor Functional Inverse Agonist EC50, forskolin induced β-galactosidase activity.
[4] abbreviates: test concentration 1 μM (footnote 1), 1 µM.
Where [5] appears, read: forskolin induced β-galactosidase activity, read-out: CB1 Receptor Functional Inverse Agonist EC50.
Where [6] appears, read: read-out: CB2 receptor binding percent inhibition, test concentration 0.2 μM (footnote 2).
The mark [7] stands for this setting: test concentration 0.2 μM (footnote 2), read-out: CB2 receptor binding percent inhibition.

T1 sequence (P21554 whole entry): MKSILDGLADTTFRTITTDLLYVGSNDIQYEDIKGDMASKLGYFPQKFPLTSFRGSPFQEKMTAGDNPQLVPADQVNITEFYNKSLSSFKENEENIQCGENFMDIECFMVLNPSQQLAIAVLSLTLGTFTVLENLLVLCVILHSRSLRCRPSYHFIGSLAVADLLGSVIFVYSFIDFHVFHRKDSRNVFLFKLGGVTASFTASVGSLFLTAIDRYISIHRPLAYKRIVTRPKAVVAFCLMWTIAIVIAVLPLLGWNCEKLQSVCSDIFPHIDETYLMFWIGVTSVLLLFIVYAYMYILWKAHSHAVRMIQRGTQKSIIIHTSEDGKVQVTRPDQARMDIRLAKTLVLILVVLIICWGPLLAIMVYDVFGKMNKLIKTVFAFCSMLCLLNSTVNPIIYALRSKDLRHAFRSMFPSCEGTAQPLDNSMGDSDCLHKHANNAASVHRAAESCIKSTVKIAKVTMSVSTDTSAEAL
T2 sequence (P34972 whole entry): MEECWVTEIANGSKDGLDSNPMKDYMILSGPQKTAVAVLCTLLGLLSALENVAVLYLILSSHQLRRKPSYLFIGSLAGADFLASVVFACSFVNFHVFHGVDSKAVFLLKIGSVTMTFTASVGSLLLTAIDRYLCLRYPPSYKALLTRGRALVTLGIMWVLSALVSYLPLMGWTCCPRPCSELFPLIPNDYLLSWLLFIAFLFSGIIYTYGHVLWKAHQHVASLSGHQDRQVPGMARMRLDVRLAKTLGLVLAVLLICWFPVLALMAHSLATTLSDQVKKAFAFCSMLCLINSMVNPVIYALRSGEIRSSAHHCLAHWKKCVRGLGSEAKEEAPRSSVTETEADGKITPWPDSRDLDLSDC

Broadly, the EC50 is the concentration giving half of the maximal effect. Take `O=C(N[C@@H]1c2ccccc2C[C@@H]1O)c1nn(-c2ccc(Cl)cc2Cl)c2c1CCCCC2Cc1cccc(Cl)c1` (single isomer, unassigned) [Cpd 112, (8R*)-8-(3-chloro-benzyl)-1-(2,4-dichloro-phenyl)-1,4,5,6,7,8-hexahydro-cycloheptapyrazole-3-carboxylic acid [(1R,2S)-2-hydroxy-indan-1-yl]-amide]: the inhibition at 1 µM at CB1 receptor [1] was 49%. The “CB2 receptor binding percent inhibition” value on CB2 receptor came out at 16%. On CB1 receptor [2] (setting [3]), the 50% effective concentration (EC50) came to 60 nM.
In the case of `O=C(N[C@@H]1c2ccccc2C[C@@H]1O)c1nn(-c2ccc(Cl)cc2Cl)c2c1CCCCC2Cc1cccc(Cl)c1` (single isomer, unassigned) [Cpd 113, (8S*)-8-(3-chloro-benzyl)-1-(2,4-dichloro-phenyl)-1,4,5,6,7,8-hexahydro-cycloheptapyrazole-3-carboxylic acid [(1R,2S)-2-hydroxy-indan-1-yl]-amide], on CB1 receptor [1], the inhibition at 0.5 µM was found to be 44%. The “CB1 receptor binding percent inhibition” value on CB1 receptor [1] (setting [4]) is recorded as 62%; at CB1 receptor [1] (test concentration not stated), 53%. In addition, the “CB2 receptor binding percent inhibition” value on CB2 receptor was found to be 28%. At CB1 receptor [2] (setting [3]), this compound came in with an EC50 of 100 nM.
With `O=C(N[C@@H]1c2ccccc2C[C@@H]1O)c1nn(C2CCCCC2)c2c1CCCCC2Cc1cccc(F)c1` (single isomer, unassigned) [Cpd 114, (8R*)-1-cyclohexyl-8-(3-fluoro-benzyl)-1,4,5,6,7,8-hexahydro-cycloheptapyrazole-3-carboxylic acid [(1R,2S)-2-hydroxy-indan-1-yl]-amide], the “CB1 receptor binding percent inhibition” value at CB1 receptor [1] (setting [4]) is listed as “^(1)17%”. Also, the “CB2 receptor binding percent inhibition” value at CB2 receptor stood at 47%. The compound further registered an EC50 on CB1 receptor [2] (setting [3]) of 40 nM.
One may read the IC50 as the concentration needed to halve the response being measured. Take `C[C@H](NS(=O)(=O)/C=C/c1nn(-c2ccc(Cl)cc2Cl)c2c1CCCCC2Cc1cccc(Cl)c1)c1ccccc1` (stereo partly drawn) [Cpd 3, (2E)-2-[8-(3-chloro-benzyl)-1-(2,4-dichloro-phenyl)-1,4,5,6,7,8-hexahydro-cycloheptapyrazol-3-yl]-ethenesulfonic acid [(1S)-1-phenyl-ethyl]-amide]: on CB1 receptor [1], the IC50 was 1300 nM and the inhibition at 1 µM worked out at 60%. Also, on CB2 receptor, the “CB2 receptor binding percent inhibition” value is 26%. The same compound returned a half-maximal effective concentration (EC50) on CB1 receptor [2] (setting [3]) of 70 nM.
For `C[C@@H](NC(=O)c1nn(C2CCCCC2)c2c1CCCCC2Cc1cccc(Cl)c1)c1ccccc1` (stereo partly drawn) [Cpd 8, 8-(3-chloro-benzyl)-1-cyclohexyl-1,4,5,6,7,8-hexahydro-cycloheptapyrazole-3-carboxylic acid [(1R)-1-phenyl-ethyl]-amide], the inhibition at 1 µM on CB1 receptor [1] amounted to 30%. Also, the “CB2 receptor binding percent inhibition” value on CB2 receptor is 5%. Further, the EC50 at CB1 receptor [2] (setting [5]) came out at 400 nM.
On to `O=C(NC1CCC1)c1nn(-c2ccc(Cl)cc2Cl)c2c1CCCCC2Cc1ccc(Cl)cc1` (centres unmarked) [Cpd 25, 8-(4-chloro-benzyl)-1-(2,4-dichloro-phenyl)-1,4,5,6,7,8-hexahydro-cycloheptapyrazole-3-carboxylic acid cyclobutylamide], for which, at CB1 receptor [1], the inhibition at 0.5 µM was determined as 30% and the inhibition at 1 µM came to 71%. Besides, the “CB1 receptor binding percent inhibition” value at CB1 receptor [1] (test concentration not stated) is listed as 51%. The “CB2 receptor binding percent inhibition” value at CB2 receptor is recorded as 19%. Further, the EC50 on CB1 receptor [2] (setting [5]) stood at 1200 nM.
In the case of `O=C(NCc1ccc(C(F)(F)F)cc1)c1nn(-c2ccc(Cl)cc2Cl)c2c1CCCCC2Cc1ccc(Cl)cc1` (centres unmarked) [Cpd 26, 8-(4-chloro-benzyl)-1-(2,4-dichloro-phenyl)-1,4,5,6,7,8-hexahydro-cycloheptapyrazole-3-carboxylic acid 4-trifluoromethyl-benzylamide], the inhibition at 1 µM on CB1 receptor [1] turned out to be 70%; on CB2 receptor (test concentration 1 μM (footnote 1), read-out: CB2 receptor binding percent inhibition) it was 35%. Moreover, the inhibition at 2 µM was 55% on CB1 receptor [1] (read-out: CB1 receptor binding percent inhibition, test concentration 2 μM (footnote 6)) and 22% on CB2 receptor (test concentration 2 μM (footnote 6), read-out: CB2 receptor binding percent inhibition). Besides, on CB1 receptor [1] (test concentration not stated), the “CB1 receptor binding percent inhibition” value is on record as 63%. The “CB2 receptor binding percent inhibition” value at CB2 receptor stood at 29%. Also, the concentration for a half-maximal effect (EC50) on CB1 receptor [2] (setting [5]) came out at 600 nM.
In the case of `O=C(NN1CCCCC1)c1nn(-c2ccc(Cl)cc2Cl)c2c1CCCCC2Cc1cccc(Cl)c1` (centres unmarked) [Cpd 28, 8-(3-chloro-benzyl)-1-(2,4-dichloro-phenyl)-1,4,5,6,7,8-hexahydro-cycloheptapyrazole-3-carboxylic acid piperidin-1-ylamide], at CB1 receptor [1], the IC50 is 100 nM and the inhibition at 1 µM is 65%. In addition, the “CB2 receptor binding percent inhibition” value on CB2 receptor is recorded as 11%. In addition, the EC50 at CB1 receptor [2] (setting [3]) is 50 nM.
`O=C(N[C@@H](CO)c1ccccc1)c1nn(-c2ccc(Cl)cc2Cl)c2c1CCCC/C2=C\c1ccc(F)cc1` [Cpd 203, (8E)-1-(2,4-dichloro-phenyl)-8-(4-fluoro-benzylidene)-1,4,5,6,7,8-hexahydro-cycloheptapyrazole-3-carboxylic acid [(1R)-2-hydroxy-1-phenyl-ethyl]-amide]: the results for the inhibition at 0.2 µM on CB1 receptor [1] and on CB2 receptor (setting [6]) were 37% and 30%, respectively.
Consider `O=C(c1n[nH]c2c1CCCC/C2=C\c1ccc(Cl)cc1)N1CCCCC1` [Cpd 223, (8E)-[8-(4-chloro-benzylidene)-1,4,5,6,7,8-hexahydro-cycloheptapyrazol-3-yl]-piperidin-1-yl-methanone], for which the inhibition at 0.2 µM amounted to 40% on CB1 receptor [1] and 58% on CB2 receptor (setting [7]).
For `C[C@@H](NS(=O)(=O)C=Cc1n[nH]c2c1CCCCC2Cc1cccc(F)c1)c1ccccc1` (stereo partly drawn) [Cpd 235, 2-[8-(3-fluoro-benzyl)-1,4,5,6,7,8-hexahydro-cycloheptapyrazol-3-yl]-ethenesulfonic acid [(1R)-1-phenyl-ethyl]-amide] the same measures were 0% and 41%.
On the same counts, the results for `C[C@@H](NS(=O)(=O)/C=C/c1n[nH]c2c1CCCC/C2=C\c1ccc(Cl)cc1)c1ccccc1` [Cpd 236, (2E,8E)-2-[8-(4-chloro-benzylidene)-1,4,5,6,7,8-hexahydro-cycloheptapyrazol-3-yl]-ethenesulfonic acid [(1R)-1-phenyl-ethyl]-amide] are 0% and 41%.
On the same counts, the results for `Cn1nc(C(=O)n2ccnc2)c2c1/C(=C/c1cccc(F)c1)CCCC2` [Cpd 243, (8E)-[8-(3-fluoro-benzylidene)-1-methyl-1,4,5,6,7,8-hexahydro-cycloheptapyrazol-3-yl]-imidazol-1-yl-methanone] are 0% and 0%.
As for `O=C(N[C@H](CO)Cc1ccc(O)cc1)c1n[nH]c2c1CCCC/C2=C\c1cccc(Cl)c1` [Cpd 246, (8E)-(2S)-8-(3-chloro-benzylidene)-1,4,5,6,7,8-hexahydro-cycloheptapyrazole-3-carboxylic acid [1-hydroxymethyl-2-(4-hydroxy-phenyl)-ethyl]-amide], the results for the inhibition at 0.2 µM on CB1 receptor [1] and on CB2 receptor (setting [7]) were 0% and 15%, respectively.
On to `COC(=O)[C@@H](Cc1ccc(F)cc1)NC(=O)c1nn(C)c2c1CCCC/C2=C\c1cccc(F)c1` [Cpd 248, (8E)-(2R)-2-{[8-(3-fluoro-benzylidene)-1-methyl-1,4,5,6,7,8-hexahydro-cycloheptapyrazole-3-carbonyl]-amino}-3-(4-fluoro-phenyl)-propionic acid methyl ester], for which the IC50 at CB1 receptor [1] is 7 nM; at CB2 receptor (Cannabinoid CB2 Receptor Binding IC50, calculated by linear regression from percent inhibition at various test concentrations), 3 nM. The inhibition at 0.2 µM at CB1 receptor [1] came to 89%; at CB2 receptor (setting [6]), 96%.
